For 15 molecules, melting point and Ki results are on record in patent US6548495B2, “Dihydro-benzo [B] [1,4] diazepin-2-one derivatives” (Hoffmann-La Roche Inc., priority 2002, dated 2003).

For orientation: melting point means the temperature of the solid-liquid transition. In general, Ki refers to the equilibrium dissociation constant of an inhibitor or competing ligand from its target.

In data set [1] the target is T1, recombinant rat mGluR2 expressed in CHO cells (Rattus norvegicus, UniProt P31421).
T1 construct: expressed in transfected cells; host or cells: CHO cells, stably transfected with pcD1mGR2 (pcDNA I-amp), G-418 selected; membranes used
In words: [3H]-LY354740 binding on mGlu2 transfected CHO cell membranes (displacement binding assay). The note with it: displacement of 10 nM [3H]-LY354740, membranes of CHO cells expressing rat mGlu2, room temperature, 1 hour; Ki calculated from IC50 with the Cheng and Prusoff equation. The source says:
In Table I below some specific Ki values of preferred compounds of the invention are presented. These values were obtained by indirect measurement of the affinity of the compounds for the recombinant rat mGluR2 expressed in CHO cells using a displacement binding assay with 3H-LY354740.
[^3H]-LY354740 Binding on mGlu2 Transfected CHO Cell Membranes
Transfection and Cell Culture
cDNA encoding the rat mGlu2 receptor protein in pBluescript II was obtained from Prof. S. Nakanishi (Kyoto, Japan), and subcloned into the eukaryotic expression vector pcDNA I-amp from Invitrogen (NV Leek, The Netherlands). This vector construct (pcD1mGR2) was co-transfected with a psvNeo plasmid encoding the gene for neomycin resistance, into CHO cells by a modified calcium phosphate method described by Chen & Okayama (1988). The cells were maintained in Dulbecco's Modified Eagle medium with reduced L-glutamine (2 mM final concentration) and 10% dialysed foetal calf serum from Gibco BRL (Basel, Switzerland). Selection was made in the presence of G-418 (1000 ug/mL final). Clones were identified by reverse transcription of 5 μg total RNA, followed by PCR using mGlu2 receptor specific primers 5′-[…]-3′ and 5′-[…]-3′ in 60 mM Tris HCl (pH 10), 15 mM (NH4)2SO4, 2 mM MgCl2, 25 units/mL Taq Polymerase with 30 cycles annealing at 60° C. for 1 min., extention at 72° C. for 30 s, and 1 min. 95° C. denaturation.
Cells, cultured as above, were harvested and washed three times with cold PBS and frozen at −80° C. The pellet was resuspended in cold 20 mM HEPES-NaOH buffer containing 10 mM EDTA (pH 7.4), and homogenised with a polytron (Kinematica, AG, Littau, Switzerland) for 10 s at 10000 rpm. After centrifugation for 30 min. at 4° C., the pellet was washed once with the same buffer, and once with cold 20 mM HEPES-NaOH buffer containing 0.1 mM EDTA, (pH 7.4). Protein content was measured using the Pierce method (Socochim, Lausanne, Switzerland) using bovine serum albumin as standard.
After thawing, the membranes were resuspended in cold 50 mM Tris-HCl buffer containing 2 mM MgCl2 and 2 mM CaCl2, (pH 7) (binding buffer). The final concentration of the membranes in the assays was 25 μg protein/mL. Inhibition experiments were performed with membranes incubated with 10 nM [^3H]-LY354740 at room temperature, for 1 hour, in presence of various concentrations of the compound to be tested. Following the incubations, membranes were filtered onto Whatmann GF/C glass fiber filters and washed 5 times with cold binding buffer. Non specific binding was measured in the presence of 10 μM DCG IV. After transfer of the filters into plastic vials containing 10 mL of Ultima-gold scintillation fluid (Packard, Züirich, Switzerland), the radioactivity was measured by liquid scintillation in a Tri-Carb 2500 TR counter (Packard, Züirich, Switzerland).
The inhibition curves were fitted with a four parameter logistic equation giving IC50 values, and Hill coefficients and the Ki values were calculated using the Cheng and Prusoff equation (Cheng, Y. and Prusoff, W. H., Biochem. Pharmacol. 1973, 22, 3099-3108). A small Ki value expresses high affinity of the compound towards the receptor.

T1 sequence (P31421 19-872): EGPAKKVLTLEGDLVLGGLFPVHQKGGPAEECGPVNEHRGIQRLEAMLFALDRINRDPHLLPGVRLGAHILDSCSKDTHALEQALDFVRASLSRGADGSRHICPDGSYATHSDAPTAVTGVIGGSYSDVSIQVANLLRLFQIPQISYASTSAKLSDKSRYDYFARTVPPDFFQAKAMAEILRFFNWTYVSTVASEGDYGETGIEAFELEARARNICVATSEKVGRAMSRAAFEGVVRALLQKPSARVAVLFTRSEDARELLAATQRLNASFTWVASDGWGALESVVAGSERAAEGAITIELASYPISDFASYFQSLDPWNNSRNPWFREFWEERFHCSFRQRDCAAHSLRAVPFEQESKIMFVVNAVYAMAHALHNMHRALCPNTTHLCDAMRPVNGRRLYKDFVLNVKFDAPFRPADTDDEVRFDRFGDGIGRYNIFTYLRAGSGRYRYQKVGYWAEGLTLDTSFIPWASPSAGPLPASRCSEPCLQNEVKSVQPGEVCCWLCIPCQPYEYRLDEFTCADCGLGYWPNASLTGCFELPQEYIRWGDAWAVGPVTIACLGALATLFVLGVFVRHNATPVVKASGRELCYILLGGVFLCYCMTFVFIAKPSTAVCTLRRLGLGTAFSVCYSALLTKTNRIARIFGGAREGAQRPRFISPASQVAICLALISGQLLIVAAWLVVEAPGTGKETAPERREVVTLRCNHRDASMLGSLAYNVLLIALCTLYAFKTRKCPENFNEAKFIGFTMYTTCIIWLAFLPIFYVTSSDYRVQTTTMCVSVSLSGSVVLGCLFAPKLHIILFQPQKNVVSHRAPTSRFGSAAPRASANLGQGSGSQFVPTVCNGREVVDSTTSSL

`O=C1CC(c2cccc(-n3ccnn3)c2)=Nc2ccc(-n3cccc3)cc2N1` [Example 21, 8-Pyrrol-1-yl-4-(3-[1,2,3]triazol-1-yl-phenyl)-1,3-dihydro-benzo[b][1,4]diazepin-2-one] came in with a melting point of 206 to 209 °C. Further, the Ki in data set [1] is 7.5 nM.
Molecule `O=C1CC(c2cccc(-c3ncco3)c2)=Nc2ccc(-n3cccc3)cc2N1` [Example 22, 4-(3-Oxazol-2-yl-phenyl)-8-pyrrol-1-yl-1,3-dihydro-benzo[b][1,4]diazepin-2-one] showed a melting point of 251 to 253 °C. Also, in data set [1], the Ki was 23 nM.
Take `CCOC(=O)c1ncoc1-c1cccc(C2=Nc3ccc(-n4cccc4)cc3NC(=O)C2)c1` [Example 23, 5-[3-(4-oxo-7-Pyrrol-1-yl-4,5-dihydro-3H-benzo[b][1,4]diazepin-2-yl)-phenyl]-oxazole-4-carboxylic Acid Ethyl Ester]: the melting point lay in the range of 222 to 224 °C. In addition, the Ki in data set [1] is 29 nM.
The molecule `NC(=O)c1coc(-c2cccc(C3=Nc4ccc(-n5cccc5)cc4NC(=O)C3)c2)n1` [Example 27, 2-[3-(4-oxo-7-Pyrrol-1-yl-4,5-dihydro-3H-benzo[b][1,4]diazepin-2-yl)-phenyl]-oxazole-4-carboxylic Acid Amide] registered a melting point of 232 to 234 °C. The Ki in data set [1] was 62 nM.
Regarding `O=C1CC(c2cccc(-c3nc(C(=O)NCCO)co3)c2)=Nc2ccc(-n3cccc3)cc2N1` [Example 34, 2-[3-(4-oxo-7-Pyrrol-1-yl-4,5-dihydro-3H-benzo[b][1,4]diazepin-2-yl)-phenyl]-oxazole-4-carboxylic Acid (2-Hydroxy-ethyl)-amide], the melting point was in the range of 242 to 244 °C. In addition, in data set [1], the inhibition constant Ki was 91 nM.
The corresponding values for `Cn1nccc1-c1cccc(C2=Nc3cc(N4CCOCC4)c(C(F)(F)F)cc3NC(=O)C2)c1` [Example 38, 4-[3-(2-Methyl-2H-pyrazol-3-yl)-phenyl]-7-morpholin-4-yl-8-trifluoromethyl-1,3-dihydro-benzo[b][1,4]diazepin-2-one] are 211 °C and 6 nM.
As for `N#Cc1cc(C2=Nc3cc(N4CCSCC4)c(C(F)(F)F)cc3NC(=O)C2)ccn1` [Example 42, 4-(4-oxo-8-Thiomorpholin-4-yl-7-trifluoromethyl-4,5-dihydro-3H-benzo[b][1,4]diazepin-2-yl)-pyridine-2-carbonitrile], the melting point is 195 to 199 °C. Besides, the Ki in data set [1] was 0.9 nM.
For `CCOc1cc2c(cc1C(F)(F)F)NC(=O)CC(c1cccc(-n3nncc3CO)c1)=N2` [Example 52, 7-Ethoxy-4-[3-(5-hydroxymethyl-[1,2,3]triazol-1-yl)-phenyl]-8-trifluoromethyl-1,3-dihydro-benzo[b][1,4]diazepin-2-one] the same measures were 214 °C and 83.5 nM.
Molecule `CCOc1cc2c(cc1C(F)(F)F)NC(=O)CC(c1ccnc(C#N)c1)=N2` [Example 53, 4-(8-Ethoxy-4-oxo-7-trifluoromethyl-4,5-dihydro-3H-benzo[b][1,4]diazepin-2-yl)-pyridine-2-carbonitrile] yielded a melting point of 233 °C. For the same molecule, the Ki in data set [1] was 8 nM.
For `Cc1cc2c(cc1C(F)(F)F)NC(=O)CC(c1ccnc(C#N)c1)=N2` [Example 58, 4-(8-Methyl-4-oxo-7-trifluoromethyl-4,5-dihydro-3H-benzo[b][1,4]diazepin-2-yl)-pyridine-2-carbonitrile] the same measures were 235 °C and 8.5 nM.
In turn, `Cc1cc(-c2cccc(C3=Nc4cc(N5CCSCC5)c(C#N)cc4NC(=O)C3)c2)on1` [Example 62, 2-[3-(3-Methyl-isoxazol-5-yl)-phenyl]-4-oxo-8-thiomorpholin-4-yl-4,5-dihydro-3H-benzo[b][1,4]diazepine-7-carbonitrile] yielded a melting point of 245 °C. Also, the Ki in data set [1] was 32.5 nM.
As for `O=C1CC(c2cccc(-n3nncc3CNC3CC3)c2)=Nc2cc(Cl)c(C(F)(F)F)cc2N1` [Example 67, 7-Chloro-4-[3-(5-cyclopropylaminomethyl-[1,2,3]triazol-1-yl)-phenyl]-8-trifluoromethyl-1,3-dihydro-benzo[b][1,4]diazepin-2-one], the melting point is 206 °C. The inhibition constant Ki in data set [1] is 15.5 nM.
The corresponding values for `Cc1cc2c(cc1C(F)(F)F)NC(=O)CC(c1cccc(-n3nncc3CNC3CC3)c1)=N2` [Example 69, 4-[3-(5-Cyclopropylaminomethyl-[1,2,3]triazol-1-yl)-phenyl]-7-methyl-8-trifluoromethyl-1,3-dihydro-benzo[b][1,4]diazepin-2-one] are 181 °C and 26 nM.
As to `Cc1cc2c(cc1C(F)(F)F)NC(=O)CC(c1cccc(-n3cccn3)c1)=N2` [Example 77, 7-Methyl-4-(3-pyrazol-1-yl-phenyl)-8-trifluoromethyl-1,3-dihydro-benzo[b][1,4]diazepin-2-one], the melting point amounted to 235 °C. For the same molecule, the Ki in data set [1] is 70 nM.
Regarding `Cc1cc2c(cc1C(F)(F)F)NC(=O)CC(c1cccc(-c3nc(CO)sc3C)c1)=N2` [Example 84, 4-[3-(2-Hydroxymethyl-5-methyl-thiazol-4-yl)-phenyl]-7-methyl-8-trifluoromethyl-1,3-dihydro-benzo[b][1,4]diazepin-2-one], the melting point is 214 to 217 °C. In addition, the Ki in data set [1] is 6.5 nM.
